Results reported in patent US6280763A, “Apparatus and method for transdermal delivery of bupropion” (priority 1999, dated 2001).
Values joined by “and” are separate entries in the source; they are usually repeats but may differ in a detail not shown here. Identical values can stand only once. Counter-ions that a name gives are not always drawn. Like-named read-outs stand apart in the source and are kept apart here.

Key:
[1] = cited from earlier work
[2] = in vivo; cited from earlier work
[3] = tested on: mice; conditions: metabolites identified in urine; cited from earlier work
[4] = cited from earlier work; for Half-lives (t1/2app): human, in vivo
[5] = oral administration; cited from earlier work
[6] = rats; cited from earlier work
[7] = humans; cited from earlier work
[8] = rat; cited from earlier work
[9] = mouse, cited from earlier work
[10] = dogs; cited from earlier work
[11] = rats; cited from earlier work; remark: listed apart in the source
[12] = drug content of 80% saturated donor solution in propylene glycol; assay type: physicochemical; conditions: 80% of saturation, saturated at 32° C.
Protocol: For standardization, saturated solutions of bupropion in propylene glycol were made and 80% of the saturated solution was used as donor solutions. 1,100 mg bupropion has been suspended in 6.0 ml propylene glycol and was vortexed at 90 rpm for 68 hrs at 32° C. in a thermostated shaking cupboard. Controls have been done every 24 hrs to assure that sufficient undissolved drug was in the vessel. Thereafter the suspension was centrifuged (3,000 rpm) for 10 minutes and the clear supernatant was used as saturated solution.
For the diffusion experiments the donor solutions were freshly prepared for each experiment, 550 mg of the bupropion base were suspended in 3.0 ml propylene glycol (PG) and treated as previously described.
A spectroflow 400 pump (Separations, Hendrik Ido Ambacht, The Netherlands) was used to deliver the mobile phase, consisting of acetronitrile 0.1 m KF2 PO4 pH3 20:80 (v/v) with a flow rate of 0.8 ml/min. The mobile phase was degassed with a vacuum pump and chromatography was performed at ambient temperature. Sample amounts of 20 μl were injected with a Gilson model 321 autosampler (Gilson Middleton, Wisconsin USA) with a 20 microliter loop built in onto a inertsil 5 ODS column (Chrompack Nederland BV, Bergen op Zoom, The Netherlands). […] Bupropion base was detected by UV absorption at 310 nm using a spectra 100 spectrophometer (Spectra-Physics, Breda, The Netherlands). […]

[13] = tested on: albumin; conditions: cited from earlier work
[14] = dog, cited from earlier work

## C[C@@H](NC(C)(C)C)[C@H](O)c1cccc(Cl)c1 (relative stereo) [TB]
[1]; in vivo, po
  kinetics relative to MM: parallel that of MM
[2]
  antidepressive effect potency relative to parent medicament: half as parent medicament
[3]
  activity in mice: have shown activity in mice
[4]
  Half-lives (t1/2app): 38.8 ± 7.6 h

## C[C@H](NC(C)(C)CO)[C@H](O)c1cccc(Cl)c1 (relative stereo) [erythro amino diol]
[1]; in vivo, po
  quantifiability after oral dose: not quantifiable
[3]
  activity in mice: have shown activity in mice

## CC(NC(C)(C)C)C(=O)c1cccc(Cl)c1 (centres unmarked) [carbon 14 bupropion]
[5]
  excreted unchanged: less than 0.5%
  radioactivity recovered in the feces: 10%
  radioactivity recovered in the urine: 87%

## CC1NC(C)(C)COC1(O)c1cccc(Cl)c1 (centres unmarked) [HB]
[1]; single oral dose of bupropion
  AUC relative to medicament drug: fifteen times
  Cmax relative to medicament drug: three times
[1]; single oral dose
  speed of appearance in the systemic circulation relative to parent: almost as fast
[2]
  antidepressive effect potency relative to parent medicament: half as potent
[3]
  activity in mice: have shown activity in mice

## C[C@H](NC(C)(C)C)[C@H](O)c1cccc(Cl)c1 (relative stereo) [EB]
[1]; in vivo, po
  quantifiability after oral dose: not quantifiable
[3]
  activity in mice: have shown activity in mice
[4]
  Half-lives (t1/2app): 61.4 ± 21.6 h

## CC(NC(C)(C)C)C(=O)c1cccc(Cl)c1 (centres unmarked) [bupropion hydrochloride]
[6]
  extent of metabolism: highly metabolized
[7]
  extent of metabolism: highly metabolized

## CC(NC(C)(C)C)C(=O)c1cccc(Cl)c1 (centres unmarked) [bupropion]
[1]; in vivo
  first pass metabolism: very rapid first pass metabolism
[1]; oral dosage, 100 to 250 mgs
  dose proportionality of drug blood concentration: dose proportional from 100 to 250 mgs
[1]; oral dosage
  biological half life: approximately 14 hours
  biological half life, range: 8-24 hours
  time at which Cmax occurs: approximately 2 hours
[1]; single oral dose
  oral dose kinetics model: best described by a 2 compartment open model with first order absorption
[8]
  induction of its own metabolism: induces its own metabolism
[4]; elderly patients, after multiple dosing
  half-life change after multiple dosing: did not change significantly
[9]; over ten days
  reduction (induction of own metabolism): 58%
[9]
  induction of its own metabolism: induces its own metabolism
[10]
  absolute bioavailability: five to twenty
[11]
  absolute bioavailability: five to twenty
[12]
  drug content of 80% saturated solution: 104 mg/ml PG
[13]
  bound to albumin: 80%
[14]; two different dose levels, over one year of treatment
  reductions (induction of own metabolism): 76% and 90%
[14]
  induction of its own metabolism: induces its own metabolism
